Assay results published in patent publication US11246314B2, “Trichome and pistil maturing formulation” (priority 2015, dated 2022).

Key:
Assay type in all cases: in vivo
Details in all cases: in words
[1] = tested on: pistils of Cannabis plants; experiment: Pistil maturation on sprayed Cannabis plants
Text: (§1) Trials were done with sesame oil alone, in place of bud finisher and bud shield embodiments.
(§2) Add all ingredients to a gallon of water 7. Shake or mix well. Pour the final mixture 8 through a double mesh screen 41, into a convenient applicator such as a spray bottle 9 shown in FIG. 6. Apply directly to plants 10 over and under the leaves and flowers and upon the soil. Plant foliage should be sprayed on all surfaces until the solution is dripping off. Spray every 1-7 days as preferred as illustrated in FIG. 7.

powdery mildew = experiment: Control of powdery mildew, mold and mildew on plants
Text: as §1

[2] = tested on: trichomes of Cannabis plants; experiment: Trichome maturation on sprayed Cannabis plants
Text: as §1, §2

O=C([O-])O.[K+] [Potassium bicarbonate]
effect on pistil maturation [1]: fully matures pistils quickly
efficacy against powdery mildew / mold and mildew (powdery mildew): very effective
effect on trichome maturation [2]: little to no effect
